Source: paper PMC11404609, “Gut microbiota-mediated C-sulfonate metabolism impairs the bioavailability and anti-cholestatic efficacy of andrographolide” (Gut Microbes, 2024)

Tests used:
Format in all cases: in vivo
[1] = In-situ single-pass intestinal perfusion of AP; details: rats, AP 20 μM co-perfused with Na2SO4 40 μM vs AP alone
Method: The rat intestinal perfusion experiment was conducted based on previous literature reports^6, 7. The experimental animals were divided into two groups: Control and SO4^2- groups. Rats were anaesthetised via the intraperitoneal injection of 50% urethane at a dose of 2.4 mL/kg. Two segments of the intestine, specifically the duodenum and jejunum, each measuring 5-10 cm in length, were cannulated simultaneously. The primary tube was affixed to a syringe controlled by an infusion pump (Model PHD2000 Harvard Apparatus, Cambridge, Massachusetts). The inlet cannula was insulated and maintained in a constant temperature of 37°C in circulating water bath to ensure the perfusate’s thermal stability. Following the surgical procedure, the two segments of Control group were perfused with 20 μM AP, and the two segments of SO4^2- group were co-perfused with AP (20 μM) and Na2SO4 (40 μM). The perfusion was conducted at the flow rate of 0.17 mL/min and perfusate samples were collected every 15 min (15, 30, 45, 60, 75, and 90 min). The concentrations of AP and APM in the perfusate at the outlet were determined through UPLC-MS/MS analysis.

[2] = Tissue distribution of AP and APM in rats; details: ABX-treated rats vs Control, AP 120 mg/kg oral
Method: Control and ABX rats were orally administered a single dose of AP at 120 mg/kg. Control, ABX and germ-free C57BL/6J mice were orally administered a single dose of AP at 100 mg/kg. After 90 min of AP administration, all animals were euthanized, and blood and tissue samples were collected for subsequent analysis.
(§1) An ACQUITY^TM UPLC-MS/MS system equipped with an ACQUITY^TM UPLC BEH C18 Column (50 × 2.1 mm I.D., 1.7 μm, Waters, Milford, MA, USA) was utilized for the quantification of AP and APM as previously described.[47] Briefly, the detection samples (50 μL) were mixed with 50 μL of IS (50 ng/mL). AP and APM were extracted by 400 μL cold methanol. Supernatants were dried under nitrogen stream. Then, the residue was dissolved with 50% methanol in water, centrifuged for 30 min at 13,000 rpm, and 10 µL of the supernatant was subjected to UPLC-MS/MS analysis. The mobile phases consisted of eluent A (water) and eluent B (methanol) with a gradient elution as follows: 0–0.8 min, 10% B; 0.8–1.2 min, 10–90% B; 1.2–5.0 min, 90% B; 5.0–5.5 min, 90–10% B; 5.5–7.0 min, 10% B. The flow rate was 0.3 mL/min and the injection volume of all samples was 10 μL. The quantification of AP, APM and IS was performed by UPLC-MS/MS using an MRM method with the transitions of m/z 349.1→m/z 287.2 for AP, m/z 413.2→m/z 287.2 for APM, m/z 269→m/z 133 for IS.
AP was administered intravenously and orally to detect the production of the C-sulfonate metabolite APM. In tissue distribution experiment, rats were given AP intravenously (24 mg/kg) or orally (120 mg/kg), while mice received AP intravenously (20 mg/kg) or orally (100 mg/kg). After a 90-minute interval, the animals were sacrificed, and their liver, kidneys, small intestine, and colon were collected for analysis. In pharmacokinetic studies, rats were administered 24 mg/kg of AP intravenously or 120 mg/kg of AP by oral gavage. Blood samples were collected at predetermined time intervals (0, 5, 10, 20, 30, 40, 60, 90, 120, 180, 240, 360, and 480 min), as described, to detect the content of AP and APM by UPLC-MS/MS.

[3] = Plasma pharmacokinetics of AP after oral administration in mice; details: for Fr (%) relative oral bioavailability / AUC(0-inf) / AUC(0-t) / Cmax / Tmax / half-life: AP 100 mg/kg oral gavage; for AUC(0-inf) / AUC(0-t) / Cmax / Tmax / half-life: mouse, plasma, po, 100 mg/kg, mean ± SD
Method: Mice were orally administered APS reductase inhibitor bromocriptine mesylate (20 mg/kg, p.o.) or Na2SO4 (200 mg/kg, p.o.) or saline solution 1 week prior to AP treatment (a single dose of AP at 100 mg/kg, p.o.). Blood samples (50 μL) were collected at predetermined time points (0, 10, 20, 40, 60, 90, 120, 240, 360 min). In specific cases, mice were orally administrated with D. piger suspension (0.2 mL, 1 × 10^9 CFU/mL) or saline solution by oral gavage for 2 weeks before AP treatment (a single dose of AP at 100 mg/kg, p.o.).
The pharmacokinetic parameters of AP including peak time (Tmax), maximum concentration (Cmax), area under the curve from zero time to the last time point measured (AUC0-t), area under the curve from zero time to infinity (AUC0-∞), and elimination half-life (t1/2) were estimated using DAS 2.0 software (Shanghai, China). The relative oral bioavailability (Fr) of AP was calculated by the following equation: Fr(%)=AUC0−∞of ABX/Inhibitor/SO42−/D.piger/AUC0−∞of Control×100%
as §1

[4] = mice, Control group (Table 3), n = 10
[5] = mice, Control group (Table 4), n = 12
[6] = mice, D. piger group (D. piger suspension by gavage 2 weeks before), n = 12
[7] = mice, Inhibitor group (bromocriptine mesylate 20 mg/kg p.o. 1 week before), n = 10
[8] = mice, SO4^2- group (Na2SO4 200 mg/kg p.o. 1 week before), n = 10

AP C-sulfonate metabolism [1]: substantial increase | levels of AP in plasma and tissues [2]: elevated levels | reduction in AP bioavailability ([3]; mice colonized with D. piger): 60.11% | Fr (%) relative oral bioavailability ([3]; mice, D. piger group vs Control (AUC0-∞ ratio)): 39.89% | Fr (%) relative oral bioavailability ([3]; mice, Inhibitor group vs Control (AUC0-∞ ratio)): 147.48% | Fr (%) relative oral bioavailability ([3]; mice, SO4^2- group vs Control (AUC0-∞ ratio)): 29.42% | increase in AP bioavailability ([3]; mice, inhibition of APS reductase by bromocriptine mesylate): 47.48% | reduction in AP bioavailability ([3]; mice, treatment of Na2SO4): 70.58% | AUC(0-inf) [3, 4]: 772 ng·h/mL | AUC(0-t) [3, 4]: 646 ng·h/mL | Cmax [3, 4]: 500 ± 330 ng/mL | Tmax [3, 4]: 32 min | half-life [3, 4]: 146 ± 67.4 min | AUC(0-inf) [3, 5]: 1030 ng·h/mL | AUC(0-t) [3, 5]: 909 ng·h/mL | Cmax [3, 5]: 760 ± 440 ng/mL | Tmax [3, 5]: 41.7 min | half-life [3, 5]: 136 ± 65.2 min | AUC(0-inf) [3, 6]: 411 ng·h/mL | AUC(0-t) [3, 6]: 374 ng·h/mL | Cmax [3, 6]: 360 ± 280 ng/mL | Tmax [3, 6]: 35 min | half-life [3, 6]: 77.2 ± 38.6 min | AUC(0-inf) [3, 7]: 1140 ng·h/mL | AUC(0-t) [3, 7]: 906 ng·h/mL | Cmax [3, 7]: 970 ± 370 ng/mL | Tmax [3, 7]: 27 min | half-life [3, 7]: 146 ± 86.4 min | AUC(0-inf) [3, 8]: 227 ng·h/mL | AUC(0-t) [3, 8]: 199 ng·h/mL | Cmax [3, 8]: 142 ± 30 ng/mL | Tmax [3, 8]: 17 min | half-life [3, 8]: 133 ± 104 min
SMILES: C=C1CC[C@@H]2[C@](C)(CO)[C@H](O)CC[C@@]2(C)[C@@H]1C/C=C1/C(=O)OC[C@H]1O [AP, Andrographolide]
